Where two headings read alike, the source gives them in different places. Values belong to the compound of their own block, whether it stands above or below them.
Key:
Type in all cases: cell-based, Human
[1] = tested on: SR; experiment: CCK-8 tumor cell proliferation, SR; conditions: for IC50: Homo sapiens, SR, read-out: IC50 inhibiting proliferation of tumor cells, SR
Description: (§1) The tumor cells used herein were cultured in a cell culture medium listed in table 4 at 37° C. in an incubator with 5% CO2. Prior to experimentation, all cells used were correctly identified by STR profiling, and tested negative for mycoplasma through routine screenings.
(§2) IC50 values of the compounds of the present disclosure (including the compounds in Tables 1 and 3, and compounds of examples) were measured using the Meilun Cell Counting Kit-8 kit from Dalian Meilun Biotech Co., Ltd. Assay details are as follows: tumor cells were seeded in a 96-well plate at a density listed in Table 5. After 24 h, 100 μL of the inoculated cells were treated with 0.5 μL of the compounds of the present disclosure (including the compounds in Tables 1 and 3, and compounds of examples) at 10 different successively decreasing concentrations (starting at the highest concentration of 10 μM; 5-fold serial dilutions). After the cells were treated with the compounds of the present disclosure for a period of time, the cell viability detection reagent was added to the culture medium for cell viability assessment according to the instructions provided with the CCK-8 kit. […] The growth inhibition of the compounds of the present disclosure on cells was plotted by Prism Graphpad software, and the IC50 values of the compounds of the present disclosure were calculated therefrom.

[2] = tested on: SW620; experiment: CCK-8 tumor cell proliferation, SW620; conditions: Homo sapiens, SW-620; Table 14, designed based on CDK4/6 inhibitors; 96 h; read-out: IC50 for inhibiting the proliferation of tumor cells, SW620
Description: as §1, §2

[3] = tested on: CCRF-CEM; experiment: CCK-8 tumor cell proliferation, CCRF-CEM; parameters: IC50 for inhibiting the proliferation of tumor cells, CCRF-CEM: scale not given here; conditions: for IC50 for inhibiting the proliferation of tumor cells, CCRF-CEM: 96 h
Description: as §1, §2

[4] = tested on: MDA-MB-231; experiment: CCK-8 tumor cell proliferation, MDA-MB-231; conditions: Homo sapiens; Table 18, FAK inhibitor based; MDA-MB-231; read-out: IC50 inhibiting proliferation of tumor cells, MDA-MB-231
Description: as §1, §2

[5] = tested on: CAL-62; experiment: CCK-8 tumor cell proliferation, CAL-62; parameters: IC50 for inhibiting the proliferation of tumor cells, CAL-62: scale not given here; conditions: for IC50 for inhibiting the proliferation of tumor cells, CAL-62: 72 h; for IC50: Homo sapiens, Table 18, FAK inhibitor based, CAL-62, read-out: IC50 inhibiting proliferation of tumor cells, CAL-62
Description: as §1, §2

[6] = Table 12, designed based on CDK9 inhibitors

SMILES: COc1cc(N2CCC(N(C)Cc3ccc4c(c3)C(=O)N(C3CCC(=O)NC3=O)C4=O)CC2)ccc1Nc1ncc(Cl)c(Nc2ccccc2P(C)(C)=O)n1 (stereo not shown) [GT-03602, 5-(((1-(4-((5-chloro-4-((2-(dimethylphosphoryl)phenyl)amino)pyrimidin-2-yl)amino)-3-methoxyphenyl)piperidin-4-yl)(methyl)amino)methyl)-2-(2,6-dioxopiperidin-3-yl)isoindoline-1,3-dione]
IC50 ([1]; Table 15, ALK inhibitor based): 50 to 100 nM

SMILES: CN(C)C(=O)c1cc2cnc(Nc3ccc(N4CCNCC4)cn3)nc2n1C1CCCC1 [Ribociclib, reference compound]
IC50 [2]: > 10000 nM

SMILES: Cc1sc2c(c1C)C(c1ccc(Cl)cc1)=N[C@@H](CC(=O)NCc1ccc3c(c1)CN(C1CCC(=O)NC1=O)C3=O)c1nnc(C)n1-2 (stereo partly drawn) [GT-03378, 2-((S)-4-(4-chlorophenyl)-2,3,9-trimethyl-6H-thieno[3,2-f][1,2,4]triazolo[4,3-a][1,4]diazepin-6-yl)-N-((2-(2,6-dioxopiperidin-3-yl)-1-oxoisoindolin-5-yl)methyl)acetamide]
IC50 for inhibiting the proliferation of tumor cells, CCRF-CEM ([3]; Table 16, designed based on BET inhibitors): A+

SMILES: CNC(=O)c1ccccc1Nc1cc(Nc2cc(C)c(C3CCN(Cc4ccc5c(c4)C(=O)N(C4CCC(=O)NC4=O)C5=O)CC3)cc2OC(C)C)ncc1C(F)(F)F (stereo not shown) [GT-04083, 2-((2-((4-(1-((2-(2,6-dioxopiperidin-3-yl)-1,3-dioxoisoindolin-5-yl)methyl)piperidin-4-yl)-2-isopropoxy-5-methylphenyl)amino)-5-(trifluoromethyl)pyridin-4-yl)amino)-N-methylbenzamide]
IC50 ([3]; Homo sapiens, Table 18, FAK inhibitor based, CCRF-CEM, read-out: IC50 inhibiting proliferation of tumor cells, CCRF-CEM): 100 to 500 nM

SMILES: CNC(=O)c1ccccc1Nc1cc(Nc2ccc(N3CCC(N(C)Cc4cc5c(cc4F)C(=O)N(C4CCC(=O)NC4=O)C5)CC3)cc2OC)ncc1C(F)(F)F (stereo not shown) [GT-03729, 2-((2-((4-(4-(((2-(2,6-dioxopiperidin-3-yl)-6-fluoro-1-oxoisoindolin-5-yl)methyl)(methyl)amino)piperidin-1-yl)-2-methoxyphenyl)amino)-5-(trifluoromethyl)pyridin-4-yl)amino)-N-methylbenzamide]
IC50 [4]: 50 to 100 nM
IC50 ([1]; Table 18, FAK inhibitor based): < 50 nM
IC50 [5]: 50 to 100 nM

SMILES: O=C1CCC(N2C(=O)c3ccc(CBr)cc3C2=O)C(=O)N1 (stereo not shown) [GT-03788]
IC50 for inhibiting the proliferation of tumor cells, CCRF-CEM ([3]; Table 8, designed based on ER inhibitors): A+

SMILES: CNC(=O)c1ccccc1Nc1cc(Nc2ccc(N3CCC(N(C)Cc4cc(F)c5c(c4)CN(C4CCC(=O)NC4=O)C5=O)CC3)cc2OC)ncc1C(F)(F)F (stereo not shown) [GT-03730, 2-((2-((4-(4-(((2-(2,6-dioxopiperidin-3-yl)-7-fluoro-1-oxoisoindolin-5-yl)methyl)(methyl)amino)piperidin-1-yl)-2-methoxyphenyl)amino)-5-(trifluoromethyl)pyridin-4-yl)amino)-N-methylbenzamide]
IC50 [4]: 50 to 100 nM
IC50 ([1]; Table 18, FAK inhibitor based): < 50 nM
IC50 [5]: < 50 nM

Now from value to compound:

IC50 [4]: < 50 nM
SMILES: CN(Cc1ccc2c(c1)CN(C1CCC(=O)NC1=O)C2=O)C1CCN(c2ccc(Nc3ncc(C(F)(F)F)c(NCc4cccc(N(C)S(C)(=O)=O)c4)n3)cc2)CC1 (stereo not shown) [GT-03677, N-(3-(((2-((4-(4-(((2-(2,6-dioxopiperidin-3-yl)-1-oxoisoindolin-5-yl)methyl)(methyl)amino)piperidin-1-yl)phenyl)amino)-5-(trifluoromethyl)pyrimidin-4-yl)amino)methyl)phenyl)-N-methylmethanesulfonamide]

IC50 for inhibiting the proliferation of tumor cells, CCRF-CEM [3, 6]: A+
IC50 for inhibiting the proliferation of tumor cells, CAL-62 [5, 6]: A+
SMILES: Cn1ncc(-c2nc(NC3CCN(Cc4ccc5c(c4F)CN(C4CCC(=O)NC4=O)C5=O)CC3)ncc2Cl)c1CC1CC1 (stereo not shown) [GT-04045, 3-(5-((4-((5-chloro-4-(5-(cyclopropylmethyl)-1-methyl-1H-pyrazol-4-yl)pyrimidin-2-yl)amino)piperidin-1-yl)methyl)-4-fluoro-1-oxoisoindolin-2-yl)piperidine-2,6-dione]

IC50 for inhibiting the proliferation of tumor cells, CCRF-CEM [3, 6]: A+
SMILES: Cn1ncc(-c2nc(NC3CCN(Cc4ccc5c(c4)CN(C4CCC(=O)NC4=O)C5=O)CC3)ncc2Cl)c1CC1CC1 (stereo not shown) [GT-04044, 3-(5-((4-((5-chloro-4-(5-(cyclopropylmethyl)-1-methyl-1H-pyrazol-4-yl)pyrimidin-2-yl)amino)piperidin-1-yl)methyl)-1-oxoisoindolin-2-yl)piperidine-2,6-dione]

IC50 [4]: 1000 to 5000 nM
SMILES: Cc1cnc(Nc2ccc(N3CCC(N4CCN(Cc5ccc6c(c5)CN(C5CCC(=O)NC5=O)C6=O)CC4)CC3)cc2)nc1Nc1cccc(S(=O)(=O)NC(C)(C)C)c1 (stereo not shown) [GT-03709, N-(tert-butyl)-3-((2-((4-(4-(4-((2-(2,6-dioxopiperidin-3-yl)-1-oxoisoindolin-5-yl)methyl)piperazin-1-yl)piperidin-1-yl)phenyl)amino)-5-methylpyrimidin-4-yl)amino)benzenesulfonamide]

IC50 for inhibiting the proliferation of tumor cells, CAL-62 ([5]; Table 13, designed based on BCR-ABL inhibitors): A+
SMILES: COc1cc(Nc2c(C#N)cnc3cc(OCCCN4CCN(Cc5ccc6c(c5)CN(C5CCC(=O)NC5=O)C6=O)CC4)c(OC)cc23)c(Cl)cc1Cl (stereo not shown) [GT-02968, 4-((2,4-dichloro-5-methoxyphenyl)amino)-7-(3-(4-((2-(2,6-dioxopiperidin-3-yl)-1-oxoisoindolin-5-yl)methyl)piperazin-1-yl)propoxy)-6-methoxyquinoline-3-carbonitrile]

IC50 [4]: 1000 to 5000 nM
IC50 ([1]; Table 18, FAK inhibitor based): 50 to 100 nM
IC50 [5]: 500 to 1000 nM
SMILES: CNC(=O)c1ccccc1Nc1cc(Nc2ccc(N3CCC(N(C)Cc4cccc5c4CN(C4CCC(=O)NC4=O)C5=O)CC3)cc2OC)ncc1C(F)(F)F (stereo not shown) [GT-03731, 2-((2-((4-(4-(((2-(2,6-dioxopiperidin-3-yl)-1-oxoisoindolin-4-yl)methyl)(methyl)amino)piperidin-1-yl)-2-methoxyphenyl)amino)-5-(trifluoromethyl)pyridin-4-yl)amino)-N-methylbenzamide]

IC50 [4]: < 50 nM
SMILES: CN(c1cccc(CNc2nc(Nc3ccc(N4CCC(N5CCN(Cc6ccc7c(c6)CN(C6CCC(=O)NC6=O)C7=O)CC5)CC4)cc3)ncc2C(F)(F)F)c1)S(C)(=O)=O (stereo not shown) [GT-03678, N-(3-(((2-((4-(4-(4-((2-(2,6-dioxopiperidin-3-yl)-1-oxoisoindolin-5-yl)methyl)piperazin-1-yl)piperidin-1-yl)phenyl)amino)-5-(trifluoromethyl)pyrimidin-4-yl)amino)methyl)phenyl)-N-methylmethanesulfonamide]

IC50 for inhibiting the proliferation of tumor cells, CCRF-CEM [3, 6]: A+
IC50 for inhibiting the proliferation of tumor cells, CAL-62 [5, 6]: A+
SMILES: Cn1ncc(-c2nc(NC3CCN(Cc4cc5c(cc4F)C(=O)N(C4CCC(=O)NC4=O)C5)CC3)ncc2Cl)c1CC1CC1 (stereo not shown) [GT-04046, 3-(5-((4-((5-chloro-4-(5-(cyclopropylmethyl)-1-methyl-1H-pyrazol-4-yl)pyrimidin-2-yl)amino)piperidin-1-yl)methyl)-6-fluoro-1-oxoisoindolin-2-yl)piperidine-2,6-dione]

IC50 [4]: < 50 nM
SMILES: Cc1cnc(Nc2ccc(N3CCC(N(C)Cc4ccc5c(c4)CN(C4CCC(=O)NC4=O)C5=O)CC3)cc2)nc1Nc1cccc(S(=O)(=O)NC(C)(C)C)c1 (stereo not shown) [GT-03690, N-(tert-butyl)-3-((2-((4-(4-(((2-(2,6-dioxopiperidin-3-yl)-1-oxoisoindolin-5-yl)methyl)(methyl)amino)piperidin-1-yl)phenyl)amino)-5-methylpyrimidin-4-yl)amino)benzenesulfonamide]

IC50 for inhibiting the proliferation of tumor cells, SR ([1]; Table 14, designed based on CDK4/6 inhibitors, 72 h): A+
SMILES: Cc1nc2c(F)cc(-c3nc(Nc4ccc(N5CCN(Cc6ccc7c(c6)CN(C6CCC(=O)NC6=O)C7=O)CC5)cn4)ncc3F)cc2n1C(C)C (stereo not shown) [GT-03688, 3-(5-((4-(6-((5-fluoro-4-(4-fluoro-1-isopropyl-2-methyl-1H-benzo[d]imidazol-6-yl)pyrimidin-2-yl)amino)pyridin-3-yl)piperazin-1-yl)methyl)-1-oxoisoindolin-2-yl)piperidine-2,6-dione]

IC50 [4]: 1000 to 5000 nM
IC50 ([1]; Table 18, FAK inhibitor based): 100 to 500 nM
IC50 [5]: 100 to 500 nM
SMILES: CNC(=O)c1ccccc1Nc1cc(Nc2ccc(N3CCN(Cc4cccc5c4CN(C4CCC(=O)NC4=O)C5=O)CC3)cc2OC)ncc1C(F)(F)F (stereo not shown) [GT-03718, 2-((2-((4-(4-((2-(2,6-dioxopiperidin-3-yl)-1-oxoisoindolin-4-yl)methyl)piperazin-1-yl)-2-methoxyphenyl)amino)-5-(trifluoromethyl)pyridin-4-yl)amino)-N-methylbenzamide]

— patent publication US20260199323A1, “LIGAND COMPOUNDS FOR E3 UBIQUITIN LIGASE, PROTEIN DEGRADERS DEVELOPED ON BASIS OF LIGAND COMPOUNDS, AND USES THEREOF” (GLUETACS THERAPEUTICS (SHANGHAI) CO., LTD., priority 2021, published 2026)
